Patent US4243678A, “Acylhydrocarbylaminoalkanoic acids, compositions and uses” (Byk Gulden Lomberg Chemische Fabrik GmbH, priority 1977, dated 1981)
Like-named read-outs stand apart in the source and are kept apart here.

Key:
bile secretion = assay: Influence on bile secretion (choleresis) of the narcotized rat; format: in vivo, rat (male Sprague-Dawley); details: 0.5 h, liquid volume
Source text: (§1) Male Sprague-Dawley rats (body weight from 250 to 300 g) are narcotized with 1.2 g/kg urethane i.m. Then the abdominal cavity is opened medially, the bile duct is ligatured shortly above the place where it leads into the duodenum and also near to the hepatic duct, and both sections are catheterized towards the liver.
(§2) As in the rat all the pancreatic ducts lead out into the central section of the bile duct; it is possible in this way to discharge the pancreatic secretion separately from the distal (ligatured) section and the bile separately from the proximal section of the bile duct.
(§3) The quantities of pancreatic juice and bile juice obtained are measured at intervals of 30 minutes over a period from 2 hours before to 3 hours after the intraduodenal (V. jugularis externa) administration of the compounds to be tested (quantity of liquid administered 5 ml/kg).
(§4) The body temperature of the animals is maintained at 36° to 38° C. by means of electric blankets and radiation; the temperature is monitored rectally.
(§5) The liquid volumes of the 30-minute fractions after the administration of the substance are related in each case to the quantity of bile or pancreatic juice secreted prior to the application of the substance (=100%, mean of the last two measurements). The maximum percentage increase in the pancreatic or bile secretion is represented in dependence upon dose, and from this the ED50 is determined by interpolation.

[1] = as above; format: in vivo, rat (male Sprague-Dawley); details: in vivo, LD50 mouse i.p. / ED50 rat i.d.
Source text: as §1, §2, §3, §4, §5

[2] = Determination of toxicity (lethal action on the mouse after intraperitoneal application); format: in vivo; details: in vivo, ip
Experimental: The toxicity investigations are carried out on female NMRI mice (body weight 22 to 26 g). The animals (5 animals per dose) are given food and water ad lib. Different doses of the substances are administered intraperitoneally. The duration of observation is 14 days. The LD50, i.e. the dose at which 50% of the animals die, is determined graphically from the dose/effect curve.

[3] = Influence on pancreatic secretion of the narcotized rat; format: in vivo, rat (male Sprague-Dawley); details: in vivo, LD50 mouse i.p. / ED50 rat i.d.
Source text: as §1, §2, §3, §4, §5

pancreatic secretion = assay: as above; format: in vivo, rat (male Sprague-Dawley); details: 0.5 h
Source text: as §1, §2, §3, §4, §5

[4] = Antihepatotoxic effect: duration of hexobarbital sleep of the rat after liver damage by CCl4; details: rat, in vivo
Experimental: (§6) The compounds to be tested are administered 1 hour prior to the administration of CCl4 orally in a liquid volume of 10 ml/kg.
(§7) The antihepatotoxic effect of the compounds to be tested (sodium salts in aqueous solution) is determined by the reduction of the prolongation of sleeping period caused by the CCl4 liver cell damage in the groups treated, as compared with the prolongation of the sleeping period of the CCl4 control group (=100%). […]

liver damage by CCl4 = assay: as above; details: Rattus norvegicus, po; for ED25: read-out: ED25 antihepatotoxic effect (shortens hexobarbital narcosis by 25%)
Experimental: as §6, §7

[5] = Antiulcerogenic (stomach-protective) action, pylorus ligature and acetylsalicylic acid; format: in vivo, rat (female); details: in vivo; LD50 mouse i.p. / ED50 rat i.d.; Table IV; read-out: TQ (LD50/ED50), antiulcerogenic action
Experimental: (§8) The ulcer provocation is carried out on rats which have been made to fast for 24 hours (female, 180 to 200 g) by ligature of the pylorus (under ether narcosis) and the oral application of 100 mg/10 ml/kg acetylsalicylic acid. The administration of the substances was carried out intraduodenally (2.5 ml/kg) immediately after the ligature of the pylorus. The closure of the wound was carried out by means of Michel clamps. 4 hours after this, the animals were autopsied (while inebriated with ether) by dislocation of the atlas, and the stomach was resected. The stomach, opened longitudinally, is fixed on a cork board and, using a stereomicroscope with an enlargement of 10×, the number and size (=diameter) of any ulcers present were determined. The product of the degree of severity (according to the following scale of points) and the number of ulcers was used as the individual ulcer index.
(§9) As a measure of antiulcerogenic effect the reduction in the mean ulcer index of each treated group, as compared with that of the control group (=100%), was used.

stomach ulcer = assay: as above; format: in vivo, rat (female); details: 4 h; rat, intraduodenally; Table IV; read-out: ED50 antiulcerogenic action (dose which reduces the mean ulcer index by 50%)
Experimental: as §8, §9

[6] = narcotized rat, i.d., 30 min fraction, Table II, read-out: ED50 bile secretion (dose which brings about an increase in the bile secretion by a maximum of 50%)
[7] = Table II, read-out: TQ (LD50/ED50), bile secretion
[8] = Table I, read-out: TQ (LD50/ED50), pancreatic secretion
[9] = Rattus norvegicus, read-out: ED50 pancreatic secretion (dose which brings about an increase in the pancreatic secretion by a maximum of 50%)
[10] = TQ (LD50/ED50), antihepatotoxic effect, LD50 mouse i.p. / ED50 rat p.o., Table III
[11] = read-out: ED50 antihepatotoxic effect (dose which shortens the hexobarbital narcosis by 50%)
[12] = narcotized rat i.d., 30 min fraction, Table VI, read-out: ED50 bile secretion (dose which brings about an increase in the bile secretion by a maximum of 50%)
[13] = Table VI, read-out: TQ (LD50/ED50), bile secretion
[14] = Table VII, read-out: TQ [LD50/ED50], pancreatic secretion
[15] = narcotized rat, i.d., liquid volume, 30 min fraction, Table VII, read-out: ED50 pancreatic secretion (dose which brings about an increase in pancreatic secretion of a maximum of 50%)
[16] = TQ LD50/ED25, antihepatotoxic effect, LD50 mouse i.p. / ED25 rat p.o., Table V
[17] = TQ LD50/ED50, antihepatotoxic effect, LD50 mouse i.p. / ED50 rat p.o., Table V
[18] = read-out: ED50 antihepatotoxic effect (shortens hexobarbital narcosis by 50%)

Row | Compound | ED50 (bile secretion; [6]) [mg/kg] | selectivity ratio [1, 7] | LD50 at 336 h ([2]; mouse, Table I) [mg/kg] | selectivity ratio [3, 8] | ED50 (pancreatic secretion; [9]) [mg/kg] | selectivity ratio [4, 10] | ED50 (liver damage by CCl4; [11]) [mg/kg] | also measured
1 | CC(c1ccccc1)N(CCCC(=O)O)C(=O)c1ccc(Cl)cc1 (racemic) [Serial No. 10, N-(p-chloro)benzoyl-4-(1-phenylethylamino)butyric acid] | ~15 | ~80 | 1200 | ~60 | ~20 | ~120 | ~10 | –
2 | CC(C)(C)N(CCCC(=O)O)C(=O)c1ccc(Cl)cc1 [Serial No. 2, N-(p-chloro)benzoyl-4-(tert.-butylamino)butyric acid] | 15 | 57 | – | – | – | – | – | LD50 at 336 h ([2]; mouse, Table II): 850 mg/kg
3 | C#CC(CC)(CC)N(CCCC(=O)O)C(=O)c1ccc(Cl)cc1 [Serial No. 4, N-(p-chloro)benzoyl-4-[(3-ethyl-1-pentyn-3-yl)amino]butyric acid] | ~5 | ~40 | – | – | – | – | – | LD50 at 336 h ([2]; mouse, Table II): 200 mg/kg
4 | C#CC1(N(CCCC(=O)O)C(=O)c2ccc(Cl)cc2)CCCCC1 [Serial No. 5, N-(p-chloro)benzoyl-4-[(1-ethynylcyclohexyl-1)-amino]butyric acid] | 6 | 32 | 190 | 95 | 2 | – | – | –
5 | COc1ccc(CCN(CCCC(=O)O)C(=O)c2ccc(Cl)cc2)cc1OC [Serial No. 9, N-(p-chloro)benzoyl-4-homoveratrylaminobutyric acid] | 18 | 43 | 780 | 156 | 5 | 7.8 | 100 | –
6 | CCC(C)(C)N(CCCC(=O)O)C(=O)c1ccc(Cl)cc1Cl [Serial No. 11, N-(2,4-dichloro)benzoyl-4-[(1,1-dimethylpropyl)amino]butyric acid] | 6 | 32 | – | – | – | – | – | LD50 at 336 h ([2]; mouse, Table II): 190 mg/kg
7 | CC(=O)N(CCCC(=O)O)C(c1ccccc1)c1ccccc1 [Serial No. 14, N-acetyl-4-benzhydrylaminobutyric acid] | 5 | 220 | 1100 | ~220 | ~5 | 110 | 10 | –
8 | CC(C)(C)CC(C)(C)N(CCCC(=O)O)C(=O)c1ccc(F)cc1 [Serial No. 16, N-(p-fluoro)benzoyl-4-(1,1,3,3-tetramethylbutyl)aminobutyric acid] | 7 | 57 | 400 | ~40 | ~10 | – | – | –
9 | O=C(O)CCCN(C(=O)c1ccc(Cl)cc1)C(Cc1ccccc1)c1ccccc1 (stereo not shown) [Serial No. 17, N-(p-chloro)benzoyl-4-[(1,2-diphenylethyl)amino]butyric acid] | 5 | 32 | 160 | ~160 | ~1 | 16 | 10 | –
10 | CC(=O)N(CCCC(=O)O)c1ccccc1-c1ccccc1 [Serial No. 22, 4-[N-(biphenyl-2-yl)acetamido]butyric acid] | – | – | – | – | – | – | – | ED50 (bile secretion; [12]): 8 mg/kg; selectivity ratio [1, 13]: 93.8; LD50 at 336 h ([2]; mouse, Table IV): 750 mg/kg; selectivity ratio [3, 14]: ~375; ED50 (pancreatic secretion; [15]): ~2 mg/kg; selectivity ratio [5]: 13.6; ED50 (stomach ulcer): 55 mg/kg; selectivity ratio [4, 16]: > 250; selectivity ratio [4, 17]: 50; ED25 (liver damage by CCl4): < 3 mg/kg; ED50 (liver damage by CCl4; [18]): 15 mg/kg
11 | CC=CC(=O)N(CCCC(=O)O)c1ccccc1-c1ccccc1 [Serial No. 27, 4-[N-(biphenyl-2-yl)crotonoylamido]butyric acid] | – | – | – | – | – | – | – | ED50 (bile secretion; [12]): 10 mg/kg; selectivity ratio [1, 13]: 30; LD50 at 336 h ([2]; mouse, Table IV): 300 mg/kg; selectivity ratio [5]: ~5.5; ED50 (stomach ulcer): ~55 mg/kg; selectivity ratio [4, 16]: 188; selectivity ratio [4, 17]: 107; ED25 (liver damage by CCl4): 1.6 mg/kg; ED50 (liver damage by CCl4; [18]): 2.8 mg/kg
12 | COc1ccc(Cl)cc1C(=O)N(CCCC(=O)O)c1ccc(OC)c(-c2ccccc2)c1 [Serial No. 36, 4-[2-methoxy-5-chloro-N-(6-methoxybiphenyl-3-yl)benzamido]butyric acid] | – | – | – | – | – | – | – | ED50 (bile secretion; [12]): 1 mg/kg; selectivity ratio [1, 13]: 190; LD50 at 336 h ([2]; mouse i.p., Table VI): 190 mg/kg; selectivity ratio [3, 14]: 38; ED50 (pancreatic secretion; [15]): 5 mg/kg
13 | COc1cc(C(=O)N(CCCC(=O)O)c2cccc3ccccc23)cc(OC)c1OC [Serial No. 40, 4-{3,4,5-trimethoxy-[N-(α-naphthyl)]benzamido}butyric acid] | – | – | – | – | – | – | – | ED50 (bile secretion; narcotized rat i.d., 30 minute fraction, Table XII, read-out: ED50 bile secretion (dose which brings about an increase in bile secretion by a maximum of 50%)): 8 mg/kg; selectivity ratio ([1]; Table XII, read-out: TQ LD50/ED50, bile secretion): 45; LD50 at 336 h ([2]; mouse i.p., Table XI): 360 mg/kg; selectivity ratio ([4]; TQ LD50/ED25, antihepatotoxic effect, LD50 mouse i.p. / ED25 rat p.o., Table XI): 21.2; selectivity ratio ([4]; TQ LD50/ED50, antihepatotoxic effect, LD50 mouse i.p. / ED50 rat p.o., Table XI): ≤ 12; ED25 (liver damage by CCl4): 17 mg/kg; ED50 (liver damage by CCl4; [18]): ≥ 30 mg/kg
